Reference: patent US11583570B2, “Use of autoinducer-related pathway in inducing apoptosis and anti-infective therapy” (TSINGHUA UNIVERSITY, priority 2017, dated 2023)

What was measured:
[1] = target: T1, TNFR1 (1-293) mutant (Homo sapiens, UniProt P19438); assay: Single molecule photo-bleaching step counting (MSFQ), TNFR1 in HELA cells; format: cell-based
T1 construct: human TNFR1 (1-293) mutant was amplified from human TNFR1 with specific primers and cloned into peGFP-N1 vector; expressed in transfected cells; host or cells: HeLa cells
T1 sequence (P19438 30-293): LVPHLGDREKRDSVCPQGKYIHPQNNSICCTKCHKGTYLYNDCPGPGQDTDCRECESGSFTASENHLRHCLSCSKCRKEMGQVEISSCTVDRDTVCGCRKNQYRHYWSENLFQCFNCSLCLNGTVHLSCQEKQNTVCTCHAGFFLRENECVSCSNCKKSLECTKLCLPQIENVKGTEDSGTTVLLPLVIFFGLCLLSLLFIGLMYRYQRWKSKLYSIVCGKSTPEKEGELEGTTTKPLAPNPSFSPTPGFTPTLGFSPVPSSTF
Text: Then the cells were stimulated with HSLs, TNF α, or left untreated, and washed twice with PBS and fixed with 4% paraformaldehyde before imaging. GFP was excited at 488 nm with a laser power of 5 mW measured after the laser passing through the objective. […] The EM gain of the EMCCD camera was set at 300. Movies of 400 frames were acquired for each sample at a full-frame rate of 10 Hz. For imaging analysis, the background fluorescence was firstly subtracted from the movie acquired from the fixed cells using the rolling ball method in Image J software, and regions of interest on movies were selected manually according to the outline of cells. To analyze the bleaching steps, the fluorescence time courses of each fluorescent spots were first constructed by Image J plugin and bleaching steps were then counted manually.

[2] = target: T2, TNFR1 (Mus musculus, UniProt P25118); assay: Quantum dot-based single particle tracking, TNFR1; format: cell-based
T2 construct: To track individual TNFR1 on the cell membrane; endogenous in cells
T2 sequence (P25118 30-454): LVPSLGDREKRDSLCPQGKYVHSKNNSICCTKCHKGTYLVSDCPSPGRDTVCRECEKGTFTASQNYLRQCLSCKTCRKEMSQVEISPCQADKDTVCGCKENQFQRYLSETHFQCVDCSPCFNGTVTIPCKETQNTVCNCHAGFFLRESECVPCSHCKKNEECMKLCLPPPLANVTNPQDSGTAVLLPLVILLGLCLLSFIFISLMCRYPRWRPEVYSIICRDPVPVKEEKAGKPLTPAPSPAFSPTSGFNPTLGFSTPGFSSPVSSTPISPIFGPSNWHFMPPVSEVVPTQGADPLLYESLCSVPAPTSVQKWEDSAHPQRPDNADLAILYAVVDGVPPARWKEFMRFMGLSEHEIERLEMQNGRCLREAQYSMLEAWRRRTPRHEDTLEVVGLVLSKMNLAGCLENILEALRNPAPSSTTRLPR
Protocol: To track individual TNFR1 on the cell membrane, anti-TNFR1 IgG (was first papain digested to yield a Fab fragment. The Fab was then conjugated with biotin through the unique —SH at its C terminal. To prepare anti TNFR1 Fab QD conjugates, a solution of 0.7 nM anti TNFR1—Fab-biotin in 1 ml of DMEM was added drop-wise to 1 ml of 2 nM QD 605-streptavidin conjugate. Cell monolayers (50% confluent) previously serum starved for 1 hr were treated with 3OC12 HSL or left untreated and incubated with […] of the final anti TNFR1-Fab-QD solution at 25° C. for 2 min. The cells were then washed twice with PBS at 25° C., placed in serum-free medium, and loaded for imaging. For single-FcRγIIA tracking, Fc fragment was obtained by papain digestion of an anti-BSA IgG (Sigma Aldrich). Fc-QD conjugate was produced as described before. Cos-1 cells were transiently transfected with Fcγ RIIA plasmid, 24 hrs later, cells were stimulated with 3OC12 HSL or left untreated and incubated with […] of the final Fc-QD solution at 25° C. for 2 min. Quantum dot-labeled cells were imaged in TIRF mode. The fluorescence was excited at 488 nm and gated by a band-pass filter (575-640, Carl Zeiss). The excitation power was about 2 mW measured after the objective. Movies of 400 frames were acquired for each sample at a full-frame rate of 17 Hz. Individual trajectories were constructed by Utrack written in Matlab. Diffusion coefficient and plot area were calculated by customized programs written with Matlab. For motion pattern determination by MSD-t analysis 5: linear, simple Brownian diffusion; open-up parabolic, directed diffusion; open-down parabolic, restricted diffusion; and near zero, stationary.

[3] = tested on: 3OC12 HSL-induced cytotoxicity; assay: Caspase inhibitors against 3OC12 HSL cytotoxicity; format: cell-based; conditions: in comparison with 3OC12 HSL treatment alone
Protocol: (§1) Cell apoptosis was detected with Annexin V/PI apoptosis detection Kit. Briefly, cells were stimulated with HSLs or left untreated. 6 hrs later, cells were collected and stained with Annexin VFITC and PI for 15 min at RT, then the apoptotic effect was measured by flow cytometry. OT-I or OT-II splenocytes were pulsed with specific peptides or PMA and ionomycin mixture with or without HSLs or TNF α plus cycloheximide. 24 hrs later, cells and supernatants were collected separately. For OT-I activation, cells were stained with CD69 and CD8. For OT-II activation, cells were stained with CD69 and CD4. Cell activation was measured by flow cytometry. All supernatants were detected for IL-2 secretion by ELISA.

[4] = tested on: mouse splenocytes; assay: AnnexinV and PI staining, B6 splenocytes; format: cell-based
Protocol: as §1
(§2) In order to verify TNFR1-FADD-caspase8-caspase3 pathway inhibitor can block immunocyte apoptosis caused by 3OC12-HSL clinically. The inventors use a clinical version of caspase inhibitor Emricasan as a test. […] To be specific, in a 12 plate, THP-1 cells were cultured with indicated concentrations of 3OC and Emricasan. After 1 hr, cells were collection for flow cytometric analysis of AnnexinV and PI. […] In FIG. 17b, live cell percentage of different treatment were enumerated by flow cytometry. Bar graphs of live cell percentage are depicted by mean±SEM. Then samples prepared as in FIG. 17a and FIG. 17b were used for WB analysis for the activation (cleavage) of Caspase 8 and 3. […]

[5] = tested on: Caspase 8 and 3; assay: WB analysis of Caspase 8 and 3 cleavage in THP-1; format: cell-based, human; conditions: THP-1, 1 hr and 2 hr
Protocol: In order to verify TNFR1-FADD-caspase8-caspase3 pathway inhibitor can block immunocyte apoptosis caused by 3OC12-HSL clinically. The inventors use a clinical version of caspase inhibitor Emricasan as a test. […] To be specific, in a 12 plate, THP-1 cells were cultured with indicated concentrations of 3OC and Emricasan. After 1 hr, cells were collection for flow cytometric analysis of AnnexinV and PI. […] In FIG. 17b, live cell percentage of different treatment were enumerated by flow cytometry. Bar graphs of live cell percentage are depicted by mean±SEM. Then samples prepared as in FIG. 17a and FIG. 17b were used for WB analysis for the activation (cleavage) of Caspase 8 and 3. […] In FIG. 17c, the incubate time of the left panel is 1 hr, and the […] panel is 2 hr. (Casp 8: Caspase 8, Cld Casp 8: Cleaved-Caspase 8, Casp 3: Caspase 3, Cld Casp 3: Cleaved-Caspase 3). […] Furthermore, the inventors use B6 splenocytes (separated from C57BL/6 spleen) as the test.

[6] = tested on: THP-1 cell line; assay: Annexin V/PI apoptosis detection, THP-1; format: cell-based, human; conditions: THP-1, 3OC plus Emricasan, 1 hr, AnnexinV and PI
Protocol: as §1, §2

`CCCCCC(=O)CC(=O)N[C@H]1CCOC1=O` [3-oxo-C8] was tested, and the “TNFR1 trimerization (three step quenching)” value [1] was “failed to increase”.

In the case of MβCD, the TNFR1 diffusion coefficient [2] is reported as “higher diffusion coefficient” and the “TNFR1 x-y surface area coverage” value [2] is reported as “larger area coverage”.

With Z-VAD the “effect on 3OC12 HSL cytotoxicity” value [3] was “reduced the cytotoxicity”.

For TNFα, the “TNFR1 trimerization (three step quenching)” value [1] was “similarly occurred”.

With `C[C@H](NC(=O)C(=O)Nc1ccccc1C(C)(C)C)C(=O)N[C@@H](CC(=O)O)C(=O)COc1c(F)c(F)cc(F)c1F` [Emricasan] the “blocking of 3OC12-HSL's apoptosis” value [4] was “good effect in blocking 3OC12-HSL's apoptosis”, the “blocking of Caspase 8 and 3 cleavage” value [5] was “has effect in blocking 3OC12-HSL's apoptosis mediated by Caspase” and the “blocking of 3OC12-HSL's apoptosis” value [6] was “good effect in blocking 3OC12-HSL's apoptosis”.
